Measurements: patent publication US20230173018A1, “CASPOFUNGIN DERIVATIVES AND ASSAYS FOR EVALUATING ANTIFUNGAL TREATMENT EFFICACY” (priority 2020, published 2023)
Values after ≈ are worked out from the molar mass of the structure shown. Read-outs that look alike come from different tables or passages of the source.

Key:
Assay type in all cases: cell-based
[1] = tested on: C. albicans DPL1015 (DP-A15); assay: microbe, parasite or virus in culture; conditions: strain no. 2, DPL1015 (DP-A15), parental SC5314, FKS1 mutant HS1-S645S/P
Source text: (§1) The antifungal activities of compounds 1a, 1 and 2 (collectively: caspofungin derivatives) were compared to that of caspofungin and CSF-BOD using a panel of 49 C. albicans and C. glabrata strains (Tables 1 and 2). The panel included ATCC strains and clinical isolates as well a collection of caspofungin-responsive strains and their corresponding isogenic caspofungin-resistant derivatives, constructed by introducing point mutations within and near the defined hotspots in the FKS1 and/or FKS2 genes of the GS complex. Minimal inhibitory concentration (MIC) values for all strains were determined using the broth double dilution method and are summarized in FIG. 2 and Table 2. […] The clinical breakpoints (threshold) for caspofungin-resistance in C. albicans and C. glabrata are 1 μg/mL and 0.5 μg/mL, respectively.

C. albicans SN95 = assay: microbe, parasite or virus in culture
Source text: as §1

[2] = tested on: C. albicans T-2068 (DP-C42); assay: microbe, parasite or virus in culture; conditions: strain no. 4, T-2068 (DP-C42), parental SC5314, FKS1 HS1-F641S mutation
Source text: as §1

[3] = tested on: C. albicans T-2069 (DP-85); assay: microbe, parasite or virus in culture; conditions: strain no. 14, T-2069 (DP-85), clinical isolate, FKS1 HS1-S645F mutation
Source text: as §1

[4] = tested on: C. glabrata T-985 (11-076); assay: microbe, parasite or virus in culture
Source text: as §1

C. glabrata TGL00054 = assay: microbe, parasite or virus in culture; conditions: strain no. 19, TGL00054, parental CST109, FKS2 mutant
Source text: as §1

C. glabrata TGL00065 = assay: microbe, parasite or virus in culture; conditions: strain no. 27, TGL00065, FKS mutant
Source text: as §1

C. glabrata TGL00258 = assay: microbe, parasite or virus in culture; conditions: strain no. 25, TGL00258, parental CST34, FKS mutant
Source text: as §1

C. glabrata TGL00263 = assay: microbe, parasite or virus in culture; conditions: strain no. 28, TGL00263, parental CST78, FKS mutant
Source text: as §1

C. glabrata TGL00264 = assay: microbe, parasite or virus in culture; conditions: strain no. 29, TGL00264, parental CST78, FKS mutant
Source text: as §1

C. glabrata TGL00275 = assay: microbe, parasite or virus in culture; conditions: strain no. 32, TGL00275, FKS mutant
Source text: as §1

C. glabrata TGL00277 = assay: microbe, parasite or virus in culture; conditions: strain no. 33, TGL00277, parental EF1620, FKS mutant
Source text: as §1

C. glabrata TGL00293 = assay: microbe, parasite or virus in culture; conditions: strain no. 37, TGL00293, parental BG2, FKS mutant
Source text: as §1

C. albicans ATCC 10231 = assay: MIC, broth double dilution; conditions: strain no. 11, C. albicans ATCC 10231
Source text: as §1

C. albicans ATCC 24433 = assay: MIC, broth double dilution; conditions: strain no. 6, C. albicans ATCC 24433
Source text: as §1

C. albicans BWP17 = assay: MIC, broth double dilution
Source text: as §1

C. albicans SC5314 = assay: MIC, broth double dilution; conditions: strain no. 1, C. albicans SC5314, WT
Source text: as §1

C. albicans SN152 = assay: MIC, broth double dilution
Source text: as §1

C. glabrata ATCC 15126 = assay: MIC, broth double dilution; conditions: strain no. 41, C. glabrata ATCC 15126
Source text: as §1

C. glabrata ATCC 2001 = assay: MIC, broth double dilution; conditions: strain no. 39, C. glabrata ATCC 2001
Source text: as §1

C. glabrata ATCC 66032 = assay: MIC, broth double dilution; conditions: strain no. 40, C. glabrata ATCC 66032
Source text: as §1

C. glabrata ATCC 90030 = assay: MIC, broth double dilution; conditions: strain no. 16, C. glabrata ATCC 90030, WT
Source text: as §1

C. glabrata BG2 = assay: MIC, broth double dilution; conditions: strain no. 34, C. glabrata BG2
Source text: as §1

C. glabrata CST109 = assay: MIC, broth double dilution; conditions: strain no. 18, C. glabrata CST109 (parental)
Source text: as §1

C. glabrata CST34 = assay: MIC, broth double dilution; conditions: strain no. 21, C. glabrata CST34 (parental)
Source text: as §1

C. glabrata EF1620 = assay: MIC, broth double dilution; conditions: strain no. 31, C. glabrata EF1620
Source text: as §1

[5] = tested on: C. glabrata T-190 (11-304); assay: MIC, broth double dilution; conditions: strain no. 42, T-190 (11-304), clinical isolate
Source text: as §1

[6] = tested on: C. glabrata T-191 (11-331); assay: MIC, broth double dilution; conditions: strain no. 43, T-191 (11-331), clinical isolate
Source text: as §1

C. glabrata T-192 (1775) = assay: MIC, broth double dilution; conditions: strain no. 44, T-192 (1775), clinical isolate
Source text: as §1

[7] = tested on: C. glabrata T-193 (11-282); assay: MIC, broth double dilution; conditions: strain no. 45, T-193 (11-282), clinical isolate
Source text: as §1

[8] = tested on: C. glabrata T-982 (11-181); assay: MIC, broth double dilution; conditions: strain no. 46, T-982 (11-181), clinical isolate
Source text: as §1

[9] = tested on: C. glabrata T-983 (11-079); assay: MIC, broth double dilution; conditions: strain no. 47, T-983 (11-079), clinical isolate
Source text: as §1

[10] = tested on: C. glabrata T-984 (11-078); assay: MIC, broth double dilution; conditions: strain no. 48, T-984 (11-078), clinical isolate
Source text: as §1

[11] = strain no. 8, SN95, parental RM1000
[12] = strain no. 49, T-985 (11-076), clinical isolate
[13] = strain no. 9, BWP17, parental RM1000
[14] = strain no. 5, C. albicans SN152

Row | SMILES | MIC [1] | MIC [2] | MIC [3] | MIC (C. glabrata TGL00054) | MIC (C. glabrata TGL00065) | MIC (C. glabrata TGL00258) | MIC (C. glabrata TGL00263) | MIC (C. glabrata TGL00264) | MIC (C. glabrata TGL00275) | MIC (C. glabrata TGL00277) | MIC (C. glabrata TGL00293) | MIC (C. albicans ATCC 10231) | MIC (C. albicans ATCC 24433) | MIC (C. albicans SC5314) | MIC (C. glabrata ATCC 15126) | MIC (C. glabrata ATCC 2001) | MIC (C. glabrata ATCC 66032) | MIC (C. glabrata ATCC 90030) | MIC (C. glabrata BG2) | MIC (C. glabrata CST109) | also measured
1 | CN(C)c1ccc2c(-c3ccc(C(=O)NCCCN=[N+]=[N-])cc3C(=O)[O-])c3ccc(=[N+](C)C)cc-3oc2c1 [Compound 5-TMR-azide] | >64 µg/mL | >64 µg/mL | >64 µg/mL | >64 µg/mL | >64 µg/mL | >64 µg/mL | >64 µg/mL | >64 µg/mL | >64 µg/mL | >64 µg/mL | >64 µg/mL | >64 µg/mL | >64 µg/mL | >64 µg/mL | >64 µg/mL | >64 µg/mL | >64 µg/mL | >64 µg/mL | >64 µg/mL | >64 µg/mL | MIC (C. albicans SN95): >64 µg/mL; MIC [4]: >64 µg/mL; MIC (C. albicans BWP17): >64 µg/mL; MIC (C. albicans SN152): >64 µg/mL; MIC (C. glabrata CST34): >64 µg/mL; MIC (C. glabrata EF1620): >64 µg/mL; MIC [5]: >64 µg/mL; MIC [6]: >64 µg/mL; MIC (C. glabrata T-192 (1775)): >64 µg/mL; MIC [7]: >64 µg/mL; MIC [8]: >64 µg/mL; MIC [9]: >64 µg/mL; MIC [10]: >64 µg/mL
2 | CC[C@H](C)C[C@H](C)CCCCCCCCC(=O)N[C@H]1C[C@@H](O)[C@@H](NCCN)NC(=O)[C@@H]2[C@@H](O)CCN2C(=O)[C@H]([C@H](O)CCN)NC(=O)[C@H]([C@H](O)[C@@H](O)c2ccc(OCc3cn(CCCNc4ccc([N+](=O)[O-])c5nonc45)nn3)cc2)NC(=O)[C@@H]2C[C@@H](O)CN2C(=O)[C@H]([C@@H](C)O)NC1=O [Compound 2] | 32 µg/mL (≈ 22.9 µM) | 64 µg/mL (≈ 45.9 µM) | >64 µg/mL | >64 µg/mL | >64 µg/mL | >64 µg/mL | >64 µg/mL | >64 µg/mL | >64 µg/mL | >64 µg/mL | >64 µg/mL | 2 µg/mL (≈ 1.43 µM) | 1 µg/mL (≈ 0.717 µM) | 1 µg/mL (≈ 0.717 µM) | 4 µg/mL (≈ 2.87 µM) | 2 µg/mL (≈ 1.43 µM) | 2 µg/mL (≈ 1.43 µM) | 4 µg/mL (≈ 2.87 µM) | 4 µg/mL (≈ 2.87 µM) | 4 µg/mL (≈ 2.87 µM) | MIC (C. albicans SN95; [11]): 2 µg/mL (≈ 1.43 µM); MIC [4, 12]: 4 µg/mL (≈ 2.87 µM); MIC (C. albicans BWP17; [13]): 1 µg/mL (≈ 0.717 µM); MIC (C. albicans SN152; [14]): 1 µg/mL (≈ 0.717 µM); MIC (C. glabrata CST34): 4 µg/mL (≈ 2.87 µM); MIC (C. glabrata EF1620): 2 µg/mL (≈ 1.43 µM); MIC [5]: 2 µg/mL (≈ 1.43 µM); MIC [6]: 2 µg/mL (≈ 1.43 µM); MIC (C. glabrata T-192 (1775)): 2 µg/mL (≈ 1.43 µM); MIC [7]: 4 µg/mL (≈ 2.87 µM); MIC [8]: 2 µg/mL (≈ 1.43 µM); MIC [9]: 2 µg/mL (≈ 1.43 µM); MIC [10]: 2 µg/mL (≈ 1.43 µM)
3 | CC[C@H](C)C[C@H](C)CCCCCCCCC(=O)N[C@H]1C[C@@H](O)[C@@H](NCCNC(=O)CCc2ccc3n2[B-](F)(F)[N+]2=C(C)C=C(C)C2=C3)NC(=O)[C@@H]2[C@@H](O)CCN2C(=O)[C@H]([C@H](O)CCN)NC(=O)[C@H]([C@H](O)[C@@H](O)c2ccc(O)cc2)NC(=O)[C@@H]2C[C@@H](O)CN2C(=O)[C@H]([C@@H](C)O)NC1=O [CSF-BOD] | 16 µg/mL (≈ 11.7 µM) | >64 µg/mL | >64 µg/mL | >64 µg/mL | >64 µg/mL | >64 µg/mL | >64 µg/mL | >64 µg/mL | >64 µg/mL | >64 µg/mL | >64 µg/mL | 2 µg/mL (≈ 1.46 µM) | 2 µg/mL (≈ 1.46 µM) | 1 µg/mL (≈ 0.731 µM) | 2 µg/mL (≈ 1.46 µM) | 1 µg/mL (≈ 0.731 µM) | 2 µg/mL (≈ 1.46 µM) | 2 µg/mL (≈ 1.46 µM) | 2 µg/mL (≈ 1.46 µM) | 2 µg/mL (≈ 1.46 µM) | MIC (C. albicans SN95; [11]): 2 µg/mL (≈ 1.46 µM); MIC [4, 12]: 2 µg/mL (≈ 1.46 µM); MIC (C. albicans BWP17; [13]): 1 µg/mL (≈ 0.731 µM); MIC (C. albicans SN152; [14]): 1 µg/mL (≈ 0.731 µM); MIC (C. glabrata CST34): 1 µg/mL (≈ 0.731 µM); MIC (C. glabrata EF1620): 1 µg/mL (≈ 0.731 µM); MIC [5]: 1 µg/mL (≈ 0.731 µM); MIC [6]: 1 µg/mL (≈ 0.731 µM); MIC (C. glabrata T-192 (1775)): 2 µg/mL (≈ 1.46 µM); MIC [7]: 1 µg/mL (≈ 0.731 µM); MIC [8]: 1 µg/mL (≈ 0.731 µM); MIC [9]: 2 µg/mL (≈ 1.46 µM); MIC [10]: 2 µg/mL (≈ 1.46 µM)
